In paper PMC6273847, “Protein Tyrosine Phosphatase 1B Inhibitors from the Stems of Akebia quinata” (Molecules, 2016):
Like-named read-outs stand apart in the source and are kept apart here. Each block holds one compound with its values, some of them ahead of it.

What was measured:
[1] = system: MDA-MB-231; experiment: Cytotoxic activity against MDA-MB-231 breast cancer cells
[2] = system: MCF7; experiment: Cytotoxic activity against MCF7 breast cancer cells
[3] = system: MCF7/TAMR; experiment: Cytotoxic activity against tamoxifen-resistant MCF7 cells
[4] = system: MCF7, MDA-MB-231 and MCF7/TAMR breast cancer cell lines
[5] = molecular target: T1, PTP1B (human, recombinant) (Homo sapiens, UniProt P18031); experiment: PTP1B enzyme assay (p-NPP substrate); assay type: biochemical; conditions: for IC50: mean ± SD of three replicates, 4 mM p-NPP, 37 °C, 30 min; for PTP1B inhibition mode (Lineweaver-Burk plot): p-NPP 1, 2, 4, 8 mM, compound 1, 2, 5, 10 μM
T1 construct: purchased BIOMOL International LP (USA)
T1 sequence (P18031 1-435): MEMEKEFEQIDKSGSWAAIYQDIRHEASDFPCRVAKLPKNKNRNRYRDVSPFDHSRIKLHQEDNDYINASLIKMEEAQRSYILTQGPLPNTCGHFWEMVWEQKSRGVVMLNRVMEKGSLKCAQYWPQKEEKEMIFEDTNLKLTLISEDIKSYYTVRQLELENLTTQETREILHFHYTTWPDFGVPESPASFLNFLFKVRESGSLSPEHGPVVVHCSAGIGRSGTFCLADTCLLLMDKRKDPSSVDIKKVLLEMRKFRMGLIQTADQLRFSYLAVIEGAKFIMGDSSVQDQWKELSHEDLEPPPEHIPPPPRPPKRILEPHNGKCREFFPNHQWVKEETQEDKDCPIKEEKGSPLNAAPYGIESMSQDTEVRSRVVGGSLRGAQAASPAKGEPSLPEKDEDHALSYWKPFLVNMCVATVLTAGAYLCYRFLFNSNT
Experimental: PTP1B (human, recombinant) was purchased from BIOMOL International LP (USA) and the enzyme activity was measured using p-nitrophenyl phosphate (p-NPP) (N1891, Sigma-Aldrich, St. Louis, MO, USA) as a substrate. In general, the assay was performed in 96-well plate containing 4 mM p-NPP and PTP1B (0.05–0.1 μg) in enzyme buffer (50 mM citrate (pH 6.0), 0.1 M NaCl, 1 mM dithiothreitol (DTT), and 1 mM EDTA) with or without test compounds. The assay was also carried out in the absence of PTP1B enzyme to exclude the effect of test compounds on the measurement absorbance. Following incubation at 37 °C for 30 min, the reaction was terminated with 10 M NaOH solution. The amount of produced p-nitrophenol was estimated by measuring the absorbance at 405 nm using an absorbance microplate reader (VersaMax™, Randor, PA, USA). For the enzyme kinetic determination, Lineweaver-Burk was used to determine the inhibition type of PTP1B. On the basis of Lineweaver-Burk double reciprocal plots, the PTP1B inhibition mode was obtained at various concentrations of p-NPP substrate (1, 2, 4, and 8 mM) without or with different test compound concentrations (1, 2, 5, and 10 μM).

[6] = system: MCF-7 cells; experiment: Flow cytometric analysis of cell apoptosis (ApopNexin FITC / PI); assay type: cell-based
Experimental: An ApopNexin™ FITC kit (Millipore) was used for the flow cytometric analysis. After MCF-7 cells were seeded on 6-well plates and incubated for 24 h, the cells were treated with test compounds and incubated for 12 h. The detached cells were collected and resuspended to wash the cells twice with PBS. The cells were suspended in cold binding buffer (10 mM Hepes/NaOH pH 7.4, 140 mM NaCl, 2.5 mM CaCl2) at a concentration of 10^6 cells/mL. Annexin conjugate ApopNexin™ FITC and propidium iodide (PI) were added to the cell suspension, which was incubated for 15 min in the dark. Then, the double-stained cells were immediately analyzed using a flow cytometer (BD bioscience, San Jose, CA, USA).

[7] = Homo sapiens, MDA-MB-231, read-out: Cytotoxic Activities (IC50, μM) MDA-MB-231
[8] = Homo sapiens, MCF7, read-out: Cytotoxic Activities (IC50, μM) MCF7
[9] = Homo sapiens, MCF7, read-out: Cytotoxic Activities (IC50, μM) MCF7/TAMR

Compound: 4-hydroxy tamoxifen [4-OH tamoxifen, reference compound]
IC50 ([1]; read-out: Cytotoxic Activities (IC50, μM) MDA-MB-231, MDA-MB-231, mean ± SD of three replicates): 3.1 ± 0.31 µM
IC50 ([2]; read-out: Cytotoxic Activities (IC50, μM) MCF7, MCF7, mean ± SD of three replicates): 2.11 ± 0.39 µM
IC50 ([3]; read-out: Cytotoxic Activities (IC50, μM) MCF7/TAMR, MCF7/TAMR, mean ± SD of three replicates): 13.6 ± 1.25 µM

Compound: CC(CO)c1cc2c(c(O)c1O)[C@@]1(C)CCCC(C)(C)C1CC2=O (stereo partly drawn) [Compound 2, cyrtophyllones B]
IC50 [1, 7]: 4.04 ± 0.8 µM
cytotoxic activities against breast cancer lines, IC50 values ranging over the cell lines [4]: 0.84 ± 0.17 to 13.42 ± 1.26
IC50 [2, 8]: 7.91 ± 0.39 µM
IC50 [3, 9]: 13.4 ± 1.26 µM
IC50 [5]: 6.77 ± 1.28 µM

Compound: CC1=C(C)C2=CC(=O)c3c(O)c4c(c(O)c3[C@@]2(C)CC1)O[C@@H](C)C4 [Compound 3, uncinatone]
IC50 [1, 7]: 5.14 ± 1.55 µM
cytotoxic activities against breast cancer lines, IC50 values ranging over the cell lines [4]: 0.84 ± 0.17 to 13.42 ± 1.26
IC50 [2, 8]: 6.02 ± 2.32 µM
IC50 [3, 9]: 7.73 ± 1.02 µM
IC50 [5]: 5.41 ± 0.68 µM
PTP1B inhibition mode (Lineweaver-Burk plot) [5]: noncompetitive

IC50 [5]: 4.08 ± 1.09 µM
PTP1B inhibition mode (Lineweaver-Burk plot) [5]: noncompetitive
Compound: CC1(C)CC[C@]2(C(=O)O)CC[C@]3(C)C(=CCC4[C@@]5(C)CCC(O[C@@H]6OC[C@H](O)[C@H](O)[C@H]6O)C(C)(C)C5CC[C@]43C)C2C1 (stereo partly drawn) [Compound 6, 3-O-α-L-arabinopyranosyl olean-12-en-28-oic acid]
IC50 [1, 7]: 0.84 ± 0.17 µM
percentage of apoptotic cancer cells (higher right field, Annexin FITC/PI) ([6]; 10 μM, 12 h): 89.47%
viability at 10 µM ([6]; Homo sapiens, MCF7, 12 h, read-out: percentage of cells in lower left field (viable; low Annexin V and PI staining)): 0.75%
IC50 [2, 8]: 1.11 ± 0.04 µM
IC50 [3, 9]: 1.39 ± 0.18 µM

IC50 [5]: 21.8 ± 4.74 µM
Compound: CC1(C)CC[C@]2(C(=O)O)CC[C@]3(C)C(=CCC4[C@@]5(C)CCC(O[C@@H]6OC[C@H](O[C@@H]7O[C@H](CO)[C@@H](O)[C@H](O)[C@H]7O)[C@H](O)[C@H]6O)C(C)(C)C5CC[C@]43C)C2C1 (stereo partly drawn) [Compound 8]
IC50 [1, 7]: 1.55 ± 0.21 µM
IC50 [2, 8]: 1.29 ± 0.09 µM
IC50 [3, 9]: 1.78 ± 0.13 µM

IC50 [5]: 7.78 ± 1.43 µM
Compound: CC1(C)CC[C@]2(C(=O)O)CC[C@]3(C)C(=CCC4[C@@]5(C)C[C@@H](O)[C@@H](O)[C@](C)(CO)C5CC[C@]43C)C2C1 (stereo partly drawn) [Compound 11, 2α,3α,23-trihydroxyoleane-12-en-28-oic acid]
IC50 [2, 8]: > 40 µM

Compound: CC/C(=C(\c1ccccc1)c1ccc(OCCN(C)C)cc1)c1ccccc1 [Tamoxifen, tamoxifen, reference compound]
IC50 [1, 7]: 10.1 ± 1.51 µM
IC50 [2, 8]: 8.01 ± 1.81 µM
IC50 [3, 9]: 25.4 ± 1.79 µM
